Reference: PubChem BioAssay AID179 (DTP/NCI, 2004)
“And” between values parts separate entries of the source, which are not always exact repeats. Equal entries are not always repeated. The source made the active and inactive calls.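 Rule for the calls: active = compounds giving half or more protection of infected cells from virus-caused growth loss, again on retest; inactive = the rest.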

Tested on: CEM cells HIV-1 protection, formazan growth assay
Test: NCI AIDS Antiviral Assay
Conditions: for IC50: measured here: growth of uninfected CEM cells
Outline: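 Screen of anti-HIV-1 activity in human CEM cells using a formazan-based growth measurement at five drug concentrations. Hits with 50% or greater protection were repeated, and confirmation required reproducible complete protection.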

| Structure (SMILES) | EC50 | IC50 | outcome |
| --- | --- | --- | --- |
| CONC1CC(n2cc(C)c(=O)[nH]c2=O)OC1CO (configuration not stated) | > 200 µM | > 200 µM | – |
| Cc1cc2nc(C=C(C(F)(F)F)C(F)(F)F)sc2cc1C | > 20 µM | 3.63 µM | – |
| Cc1ccnc(NS(=O)(=O)c2ccc(N=Cc3ccccc3O)cc2)n1 | > 200 µM | > 200 µM | – |
| O=C1c2cc3c(cc2CC12Cc1cc4c(cc1C2=O)CCC4)CCC3 | 158 µM | > 200 µM | – |
| Cc1ccc(C2(C)CC(C)(C)c3ccc(C)cc3O2)c(O)c1 (configuration not stated) | > 200 µM | 20.4 µM | – |
| N#Cc1ccc(N2CCOCC2)cc1 | 195 µM | > 200 µM | – |
| COC(=O)C1(Cc2ccc3c(c2)CCC3)Cc2ccccc2C1 | > 200 µM | 35.5 µM | – |
| CC(=O)Oc1ccc(/C=C/C(=O)O[C@@H](C(=O)O)[C@@H](OC(=O)/C=C/c2ccc(OC(C)=O)c(OC(C)=O)c2)C(=O)O)cc1OC(C)=O | > 30.2 µM | > 30.2 µM | – |
| NNC(=O)CC(=O)N(C(=O)/C=C/c1ccccc1)c1ccc(Cl)cc1 | > 200 µM | > 200 µM | – |
| CN(C)C(=S)/N=c1\sn(C)/c(=N\C(=S)N(C)C)n1C | – | – | inactive |
| Oc1[nH]c2ccccc2c1N=NC(=S)Nc1ccc(Cl)cc1 | > 200 µM | 24.5 µM | – |
| CCOC(=O)c1c(SC(=O)c2ccc(C(C)(C)C)cc2)n(-c2ccccc2)c(=S)n(-c2ccccc2)c1=O | > 200 µM | 27.5 µM | – |
| C[n+]1c(-c2ccc(/C=N\Nc3ccnc(N/N=C/c4ccc(-c5cn6ccsc6[n+]5C)cc4)n3)cc2)cn2ccsc21 | > 41.7 µM | 28.8 µM | – |
| OC[C@H](O)[C@@H](OCc1ccccc1)[C@H](NCc1ccccc1)c1cccs1 | > 200 µM | 97.7 µM | – |
| Cc1ccc(-c2c(C#N)c(-c3ccccc3)c(C#N)c(=O)n2NS(=O)(=O)c2ccc(C)cc2)cc1 | > 200 µM | 57.5 µM | – |
| COc1ccc(/C=C2\CCC(C)c3c2nc(N)c(C#N)c3-c2ccc(OC)c(OC)c2)cc1OC (configuration not stated) | – | – | inactive |
| O=C1CCC[C@]2(CCCC(=O)N2)C1 | – | – | inactive |
| CCOC(=O)[C@H]1Nc2ccc(Cl)cc2[C@H]2OCC[C@@H]12 | > 178 µM | > 178 µM | – |
| COC1N(C2CC(N=[N+]=[N-])C(CO)O2)C(=O)NC(=O)C1(C)Cl (configuration not stated) | 6.61 µM | 891 µM | – |
| CC1CC(=O)NC2CC1C2(C)C (configuration not stated) | > 1480 µM | > 1480 µM | – |
| COC(=O)C(CNC(=O)/C=C/c1ccc(OC)c(OC)c1)NC(=O)/C=C/c1ccc(OC)c(OC)c1 (configuration not stated) | > 200 µM | 135 µM | – |
| CC(C)=CC[C@]12CCN(C)[C@H]1N(S(=O)(=O)c1ccccc1)c1ccccc12 | > 200 µM | 135 µM | – |

| Structure (SMILES) | EC50 | IC50 | outcome |
| --- | --- | --- | --- |
| Cc1ccc(NC(=O)CSc2nnc(-c3ccc(N=Cc4ccc(Cl)cc4)cc3)o2)cc1 | > 282 µM | 145 µM | – |
| CCc1cccc(CC)c1N=C(NC(=O)c1ccc(Br)cc1)SC | > 200 µM | > 200 µM | – |
| Nc1ncnc2c1ncn2C1OC(CO)C(O)C1O (configuration not stated) | – | – | inactive |
| COc1ccc(N=NC(=O)NC(CC(C)C)C(=O)NC(C)C(=O)O)cc1 (configuration not stated) | > 200 µM | 2.82 µM | – |
| Cc1ccc(S(=O)(=O)NNS(C)(=O)=O)cc1 | > 955 µM | 646 µM | – |
| COc1cccc(C2C(C(=O)Nc3cc(=O)n(C)c(=O)n3C)=C(C)NC(C)=C2C(=O)Nc2cc(=O)n(C)c(=O)n2C)c1O | > 219 µM | 74.1 µM | – |
| O=C(CCc1cc(-c2ccccc2)nc(=S)[nH]1)N(Cc1ccccc1)Cc1ccccc1 | – | – | inactive |
| CC1OC(=O)C(C(C)C)NC(=O)C(C(C)C)OC(=O)C(C(C)C)NC(=O)C(C)OC(=O)C(C(C)C)NC(=O)C(C(C)C)OC(=O)C(C(C)C)NC(=O)C(C)OC(=O)C(C(C)C)NC(=O)C(C(C)C)OC(=O)C(C(C)C)NC1=O (configuration not stated) | > 0.02 µM | 0.00102 µM | – |
| COP(=O)(OC)/C(=C/c1cn(C(c2ccccc2)(c2ccccc2)c2ccccc2)cn1)NC=O | > 200 µM | > 200 µM | – |
| COc1cc(NS(C)(=O)=O)ccc1NCc1c2ccccc2nc2ccccc12 | – | – | inactive |
| O=CC12C3CCC1C2C(=O)C3 (configuration not stated) | – | > 200 µM | inactive |
| Cc1ccc(C2[C@H]3C(=O)N(c4ccc(Cc5ccc(N6C(=O)[C@@H]7ON(c8ccccc8)C(c8ccc(C)cc8)[C@@H]7C6=O)cc5)cc4)C(=O)[C@H]3ON2c2ccccc2)cc1 (some centres not stated) | > 6.76 µM | > 6.76 µM | – |
| CC(CN(C)C)C(=O)c1ccccc1 (configuration not stated) | > 912 µM | 55 µM | – |
| CN(C)CCCNC(=O)CCNC(=O)c1cc(NC(=O)c2cc(NC(=O)c3cc(NC(=O)c4nccn4C)cn3C)cn2C)cn1C | > 200 µM | 17 µM | – |
| CC(C)COC(=O)N1N=NC2C3OC(CC3=O)C21 (configuration not stated) | > 977 µM | > 977 µM | – |
| Cc1nc(-c2ccccc2)c(C)n2c1nc1ccccc12 | > 200 µM | 28.8 µM | – |
| COc1ccc2c(c1)-c1oc3ccccc3c(=O)c1CO2 | > 200 µM | 32.4 µM | – |
| CC(=O)N1c2ccccc2Sc2cc(C(O)(C(F)(F)F)C(F)(F)F)ccc21 | > 200 µM | 13.5 µM | – |
| O=c1ccc2c(O)c3ccoc3cc2o1 | > 110 µM | 93.3 µM | – |
| Cc1ccc(S(=O)(=O)OC[C@@H]2CO2)cc1 | > 115 µM | 14.1 µM | – |
| CCCCn1cc(C(=O)O)c(=O)c2c3sccc3ccc21 | > 200 µM | 22.4 µM | – |
| CCOC(=O)C1Cc2c(n(C3CCCCC3)c(=O)n(C)c2=O)OC1c1ccccc1 (configuration not stated) | > 63.1 µM | 29.5 µM | – |

| Structure (SMILES) | EC50 | IC50 | outcome |
| --- | --- | --- | --- |
| O=C1OC(=O)c2c1c(-c1ccccc1)nc1ccccc21 | > 107 µM | > 107 µM | – |
| CC(=O)Nc1ccc(S(=O)(=O)N/N=C/c2cc(I)cc([N+](=O)[O-])c2O)cc1 | > 501 µM | 79.4 µM | – |
| COP(=O)(/C=C/c1cc(C(=O)OCc2ccccc2)n(S(=O)(=O)c2ccccc2)c1)OC | 145 µM | > 200 µM | – |
| CCc1cc(-c2nsc(=O)o2)c(S(=O)(=O)CC)s1 | > 200 µM | 93.3 µM | – |
| CC(C)C1OC(N)=C(C#N)C1(C#N)C#N (configuration not stated) | > 200 µM | 7.41 µM | – |
| O=Nc1c(-c2ccccc2)nc2cnccn12 | > 200 µM | 5.89 µM | – |
| O=c1cc(CBr)c2ccc(O)cc2o1 | > 200 µM | 102 µM | – |
| COc1cc(/C=C2\C=Cc3ccccc32)ccc1N(C)C | > 36.3 µM | 24 µM | – |
| CCOC(=O)/C=C/n1c2ccccc2c(=O)c2cc(OC)ccc21 | > 22.4 µM | > 22.4 µM | – |
| CCOC(=O)c1nc2cc(C(F)(F)F)ccc2nc1Nc1ccc(OC)c(OC)c1 | – | – | inactive |
| CCN(CC)c1c(C(=O)/C=C/c2ccc(Cl)cc2)c(-c2ccccc2)nn(C)c1=O | > 23.4 µM | 4.9 µM | – |
| OC(Cc1ccc(Br)cc1)CN1CCC(c2ccccc2)CC1 (configuration not stated) | > 229 µM | 17.8 µM and 9.55 µM | – |
| CC(C)c1ccc(C(c2ccc(OCC(=O)O)cc2)c2ccc(C(C)C)cc(=O)c2O)c(O)c(=O)c1 | – | – | inactive |
| Cc1c(C(=O)CSc2nc3ccc([N+](=O)[O-])cc3[nH]2)c(=O)n(-c2ccccc2)n1C | > 17 µM | > 17 µM | – |
| CNC(=O)[C@@H](C)C1C(=O)/C(=C(O)\C=C\C(C)C)C(=O)N1C1CCC(O)C(C)O1 (some centres not stated) | – | – | inactive |
| O=C1c2c(n(Cc3ccccc3)c(=O)n2Cc2ccccc2)C(=O)N1Cc1ccccc1 | > 17 µM | > 17 µM | – |
| O=CCC(O)C(O)C(O)CO (configuration not stated) | > 759 µM | > 759 µM | – |
| Cc1ccsc1/C=N/Nc1nncc2ccccc12 | > 200 µM | 25.1 µM | – |
| CC(C)=CCC[C@@H](C)C1=C(Nc2ccccc2Cl)C(O)=C(C)C(=O)C1=O | > 200 µM | 1.55 µM | – |
| O=C1NC2(CCCCC2)OC12CCCCC2 | > 6.46 µM | > 6.46 µM | – |
| C=C1C(OC(=O)C(O)C(c2ccccc2)N(C)C)C[C@H](OC(C)=O)[C@]2(C)C1C(OC(C)=O)[C@@H]1CC(OC(C)=O)C(C)=C([C@@H](OC(C)=O)C2OC(C)=O)C1(C)C (some centres not stated) | – | – | inactive |
| C=CCSCC1Nc2cc(Cl)c(S(N)(=O)=O)cc2S(=O)(=O)N1C (configuration not stated) | > 234 µM | 91.2 µM | – |

| Structure (SMILES) | EC50 | IC50 | outcome |
| --- | --- | --- | --- |
| CC12c3ccccc3C(OC=O)(c3ccccc31)C1(C)c3ccccc3C2(OC=O)c2ccccc21 | > 3.09 µM | > 3.09 µM | – |
| COc1ccc(CCn2cnc3ccccc32)cc1 | > 200 µM | > 200 µM | – |
| O=C(Nc1nc(-c2ccccc2)cs1)OCC(Cl)(Cl)Cl | > 200 µM | 4.47 µM | – |
| Cc1cc2c(c(=O)o1)C(=O)CC(C)O2 (configuration not stated) | > 776 µM | 117 µM | – |
| NC(=O)c1ccc(NN=O)nc1 | > 200 µM | > 200 µM | – |
| O=C(NNC(=O)c1ccccn1)c1ccccn1 | > 200 µM | 4.68 µM | – |
| N=C(N)SCN1C(=O)c2ccccc2C1=O | > 200 µM | > 200 µM | – |
| CC1C(NNC(N)=O)Oc2cc3c(cc2C1c1ccccc1O)OCO3 (configuration not stated) | > 200 µM | 32.4 µM | – |
| CCOC(=O)C(=CNC(=S)c1ccncc1)C(=O)OCC | > 200 µM | > 200 µM | – |
| O=C1NC(=O)C2(CC2)N1 | > 200 µM | > 200 µM | – |
| Cc1ccc(S(=O)(=O)Nn2c3c(cc(C#N)c2=O)CCC3)cc1 | > 200 µM | > 200 µM | – |
| Cc1ccnc2[nH]c3ccccc3c(=O)c12 | > 200 µM | 14.5 µM | – |
| CCC[CH2][Sn]([CH2]CCC)([O]C(=O)c1ccc(OC)c(OC)c1OC)[O][Sn]([CH2]CCC)([CH2]CCC)[O]C(=O)c1ccc(OC)c(OC)c1OC | > 5.75 µM | 0.871 µM | – |
| OC[C@H]1CC(c2nn[nH]n2)[C@H](O)[C@@H]1O (some centres not stated) | > 200 µM | > 200 µM | – |
| CC(CN(C)C)/C(=N\Nc1ccccc1)c1ccccc1 (configuration not stated) | – | – | inactive |
| COc1cc2c(cc1OC)C(=O)N1CSCC1C(=O)S2 (configuration not stated) | > 50.1 µM | > 50.1 µM | – |
| Cc1ccc(C)n1CCN1CCNCC1 | > 200 µM | 162 µM | – |
| O=C(CC(O)(C(F)(F)F)C(F)(F)F)c1ccc(-c2ccccc2)cc1 | > 200 µM | 33.9 µM | – |
| COC(=O)Oc1nn(C(=O)OC)c(=O)c2ccccc12 | > 200 µM | > 200 µM | – |
| C=C1C(=O)OC2/C=C(\CO)C(OC(C)=O)CC(O)/C(C)=C/C(OC(=O)C(C)CC)C12 (configuration not stated) | – | – | inactive |
| O=c1[nH]c(=O)n(C2CC(O)C(CO)O2)cc1C(OCC(F)(F)F)OCC(F)(F)F (configuration not stated) | > 251 µM | 12 µM | – |
